Several values for one entry are separate records, joined by “and”; a condition that tells them apart may be missing. Identical values can stand only once. Results filed as inconclusive are left out.
System: BDF1 mice, s.c. Lewis lung carcinoma, T/C %
Test: NCI In Vivo Anticancer Drug Screen. Data for tumor model Lewis Lung Carcinoma (subcutaneous) in B6D2F1 (BDF1) mice
Description: The antitumor activity of compounds was measured in mice bearing transplantable tumors. Survival or tumor size were measured and the results are expressed as the measurement made in the treated group (T) divided by the measurement made in the vehicle treated control group (C). The tumor model used in this assay is Lewis Lung Carcinoma (subcutaneous) in B6D2F1 (BDF1) mice

SMILES: CC[C@H]1CN2CCc3cc(OC)c(OC)cc3[C@@H]2C[C@@H]1C[C@H]1NCCc2cc(OC)c(OC)cc21
- T/C (endpoint: mean tumor weight, dose: 1.5 mg/kg/injection, schedule: Q01DX011 (ip), vehicle: saline, higher = larger tumour): 86 % of control

SMILES: CC(=O)Oc1ccc(/C=N/NC(N)=S)nc1
- T/C (endpoint: median survival time, dose: 9.4 mg/kg/injection, schedule: Q01DX009 (ip), vehicle: saline with Tween-80, higher = longer survival): 97 % of control
- T/C (endpoint: median survival time, dose: 18.8 mg/kg/injection, schedule: Q01DX009 (ip), vehicle: saline with Tween-80, higher = longer survival): 97 % of control
- T/C (endpoint: median survival time, dose: 25.0 mg/kg/injection, schedule: Q01DX009 (ip), vehicle: saline with Tween-80, higher = longer survival): 100 % of control
- T/C (endpoint: median survival time, dose: 37.5 mg/kg/injection, schedule: Q01DX009 (ip), vehicle: saline with Tween-80, higher = longer survival): 101 % of control
- T/C (endpoint: median survival time, dose: 50.0 mg/kg/injection, schedule: Q01DX009 (ip), vehicle: saline with Tween-80, higher = longer survival): 107 % of control
- T/C (endpoint: median survival time, dose: 75.0 mg/kg/injection, schedule: Q01DX009 (ip), vehicle: saline with Tween-80, higher = longer survival): 117 % of control
- T/C (endpoint: median survival time, dose: 100.0 mg/kg/injection, schedule: Q01DX009 (ip), vehicle: saline with Tween-80, higher = longer survival): 117 % of control
- T/C (endpoint: median tumor weight (est.), dose: 24.0 mg/kg/injection, schedule: Q03HX024 (ip), vehicle: saline with Tween-80, higher = larger tumour): 96 % of control
- T/C (endpoint: median tumor weight (est.), dose: 36.0 mg/kg/injection, schedule: Q03HX024 (ip), vehicle: saline with Tween-80, higher = larger tumour): 41 % of control

SMILES: NC(Cc1c[nH]c2ccc(N(CCCl)CCCl)cc12)C(=O)O (centres undefined)
- T/C (endpoint: mean tumor weight, dose: 0.13 mg/kg/injection, schedule: Q01DX011 (ip), vehicle: saline, higher = larger tumour): 90 % of control
- T/C (endpoint: mean tumor weight, dose: 0.5 mg/kg/injection, schedule: Q01DX011 (ip), vehicle: saline, higher = larger tumour): 90 % of control
- T/C (endpoint: mean tumor weight, dose: 1.0 mg/kg/injection, schedule: Q01DX011 (ip), vehicle: saline, higher = larger tumour): 98 % of control
- T/C (endpoint: mean tumor weight, dose: 2.0 mg/kg/injection, schedule: Q01DX011 (ip), vehicle: saline, higher = larger tumour): 102 % of control

SMILES: O=P(O)(NCCCl)NCCCl
- T/C (endpoint: median survival time, dose: 12.5 mg/kg/injection, schedule: Q01DX001 (ip), vehicle: saline, higher = longer survival): 114 % of control and 115 % of control
- T/C (endpoint: median survival time, dose: 25.0 mg/kg/injection, schedule: Q01DX001 (ip), vehicle: saline, higher = longer survival): 113 % of control and 114 % of control
- T/C (endpoint: median survival time, dose: 100.0 mg/kg/injection, schedule: Q01DX001 (ip), vehicle: saline, higher = longer survival): 200 % of control and 243 % of control

SMILES: CCCN(/C=C/C=C/C=[N+](CCC)CCC)CCC
- T/C (endpoint: median survival time, dose: 0.03 mg/kg/injection, schedule: Q01DX009 (ip), vehicle: saline, higher = longer survival): 114 % of control
- T/C (endpoint: median survival time, dose: 0.05 mg/kg/injection, schedule: Q01DX009 (ip), vehicle: saline, higher = longer survival): 100 % of control
- T/C (endpoint: median survival time, dose: 0.1 mg/kg/injection, schedule: Q01DX009 (ip), vehicle: saline, higher = longer survival): 115 % of control
- T/C (endpoint: median survival time, dose: 0.2 mg/kg/injection, schedule: Q01DX009 (ip), vehicle: saline, higher = longer survival): 108 % of control

SMILES: COc1cccc(C=O)c1O
- T/C (endpoint: mean tumor weight, dose: 12.5 mg/kg/injection, schedule: Q01DX011 (ip), vehicle: carboxymethylcellulose (CMC), higher = larger tumour): 106 % of control
- T/C (endpoint: mean tumor weight, dose: 25.0 mg/kg/injection, schedule: Q01DX011 (ip), vehicle: carboxymethylcellulose (CMC), higher = larger tumour): 58 % of control
- T/C (endpoint: mean tumor weight, dose: 50.0 mg/kg/injection, schedule: Q01DX011 (ip), vehicle: carboxymethylcellulose (CMC), higher = larger tumour): 88 % of control

SMILES: c1ccc(CSc2ncnc3nc[nH]c23)nc1
- T/C (endpoint: mean tumor weight, dose: 25.0 mg/kg/injection, schedule: Q01DX011 (ip), vehicle: other, higher = larger tumour): 59 % of control
- T/C (endpoint: mean tumor weight, dose: 50.0 mg/kg/injection, schedule: Q01DX011 (ip), vehicle: other, higher = larger tumour): 109 % of control
- T/C (endpoint: mean tumor weight, dose: 100.0 mg/kg/injection, schedule: Q01DX011 (ip), vehicle: other, higher = larger tumour): 63 % of control

SMILES: C=C1C(=O)O[C@@H]2/C=C(/C)[C@@]3(O)C=C[C@](C)(C[C@@H](OC(=O)/C(=C\C)COC(C)=O)[C@@H]12)O3
- T/C (endpoint: median survival time, dose: 0.03 mg/kg/injection, schedule: Q01DX009 (ip), vehicle: carboxymethylcellulose (CMC), higher = longer survival): 100 % of control
- T/C (endpoint: median survival time, dose: 0.06 mg/kg/injection, schedule: Q01DX009 (ip), vehicle: carboxymethylcellulose (CMC), higher = longer survival): 94 % of control
- T/C (endpoint: median survival time, dose: 0.12 mg/kg/injection, schedule: Q01DX009 (ip), vehicle: carboxymethylcellulose (CMC), higher = longer survival): 113 % of control
- T/C (endpoint: median survival time, dose: 0.25 mg/kg/injection, schedule: Q01DX009 (ip), vehicle: carboxymethylcellulose (CMC), higher = longer survival): 87 % of control
- T/C (endpoint: median survival time, dose: 0.5 mg/kg/injection, schedule: Q01DX009 (ip), vehicle: carboxymethylcellulose (CMC), higher = longer survival): 100 % of control

SMILES: CN(/N=N/c1nc[nH]c1C(N)=O)C(C)(C)C
- T/C (endpoint: median survival time, dose: 200.0 mg/kg/injection, schedule: Q01DX009 (ip), vehicle: Klucel (hydroxypropylcellulose) (HPC), higher = longer survival): 109 % of control
- T/C (endpoint: median survival time, dose: 400.0 mg/kg/injection, schedule: Q01DX009 (ip), vehicle: Klucel (hydroxypropylcellulose) (HPC), higher = longer survival): 90 % of control

— PubChem BioAssay AID270 (DTP/NCI, 2004)
